Test results: patent US20240239821A1, “N-ACYL FOSMIDOMYCIN PRODRUG ANALOGS AS NOVEL ANTIINFECTIVE AGENTS” (THE GEORGE WASHINGTON UNIVERSITY, priority 2021, published 2024)
Like-named read-outs stand apart in the source and are kept apart here.

Tests used:
P falciparum strain 3D7 = assay: microbe, parasite or virus in culture; type: cell-based, Plasmodium falciparum
Method: P falciparum strain 3D7 (wild-type, WT) was obtained through MR4 as part of the BEi Resources Repository, NIAID, NIH (www.mr4.org). AP falciparum strain containing increased levels of MEP pathway metabolites, had]
(MRA-1257), and its isogenic compliment, had]+ Pfl-Iadl-GFP (MRA-1258), were generated in strain 3D7, as reported (Guggisberg et al.). Parasites were cultured in a 2% suspension of human erythrocytes and RPMI 1640 (Sigma) medium supplemented with 27 mM sodium bicarbonate, 11 mM glucose, 5 mM HEPES, I mM sodium pyruvate, 0.37 mM hypoxanthine, 0.01 mM thymidine, 10 μg/mL gentamicin, and 0.5% Albumax (Gibco) at 37° C., 5% 02/5% CO2/90% N2 atmosphere.

P. falciparum DXR [1] = biological target: T1, P. falciparum DXR (Plasmodium falciparum, UniProt Q8IKG4); settings: background statement; cited from earlier work
T1 construct: His6 (N); made in house; host or cells: Escherichia coli Rosetta2(DE3)
T1 sequence (Q8IKG4 73-488): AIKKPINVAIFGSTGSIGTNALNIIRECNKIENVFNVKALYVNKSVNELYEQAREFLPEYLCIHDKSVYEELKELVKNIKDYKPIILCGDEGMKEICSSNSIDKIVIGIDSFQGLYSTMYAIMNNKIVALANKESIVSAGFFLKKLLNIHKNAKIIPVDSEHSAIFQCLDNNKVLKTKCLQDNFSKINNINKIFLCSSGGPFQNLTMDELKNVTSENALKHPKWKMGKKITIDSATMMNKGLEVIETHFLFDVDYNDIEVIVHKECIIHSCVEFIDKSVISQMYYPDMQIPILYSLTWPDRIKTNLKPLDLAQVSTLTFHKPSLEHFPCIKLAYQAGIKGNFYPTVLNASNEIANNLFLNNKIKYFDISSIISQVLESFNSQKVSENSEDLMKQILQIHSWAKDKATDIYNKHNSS

P. falciparum DXR [2] = biological target: T1, P. falciparum DXR; assay: Plasmodium falciparum DXR enzyme IC50; type: biochemical
Method: Recombinant protein was expressed in Escherichia coli Rosetta2(DE3) cells obtained from Novagen (San Diego, CA). E. coli was cultured at 37° C. in Luria-Bertani (LB) media supplemented with 100 μg/mL ampicillin and 34 μg/ml chloramphenicol with constant shaking at 250 rpm. Agar (1.5% wt/vol) was added to prepare solid media.
Cloning. Expression, and Purification of P falciparum DXR
The P falciparum dxr gene was truncated to begin at Lys 75 to remove the apicoplast signaling sequence. A Pf 3D7 trophozoite cDNA library (MRA-297) was acquired from BEi resources and used as the template for amplification of the PIDXR gene. […] 3′ reverse and cloned into a pETl 00/D-TOPO vector to yield pPIDXR, facilitating the expression of an N-terminal His6-tagged protein.
The expression plasmid (pPIDXR) was separately transformed into chemically competent E. coli Rosetta2(DE3) cells for protein expression. To express the His-tagged protein, a 10 mL overnight seed culture was added to IL of LB media and then incubated with shaking at 37° C. and 250 rpm. At an OD600 of 1.8, protein expression was induced with addition of isopropyl b-D-thiogalactopyranoside (IPTG) to 0.5 mM and the culture was further incubated with shaking at 37° C. and 250 rpm for an additional 18 hours. Cells were harvested via centrifugation (4648×g, 20 min, 4° C.) and stored at −80° C. Protein was subsequently isolated and purified from the cells via chemical lysis and affinity chromatography.
Cells were lysed with lysis buffer A (100 mM Tris pH 8.0, 0.032% lysozyme, 3 mL per gram cell pellet), followed by lysis buffer B (0.1 M CaCh, 0.1 M MgCh, 0.1 M NaCl, 0.020% DNase, 0.3 mL per gram cell pellet).
The column was washed with 20 column volumes of Ix equilibrium buffer (50 mM HEPES pH 7.5, 300 mM NaCl), 10 column volumes of Ix wash buffer (50 mM HEPES pH 7.5, 300 mM NaCl, 10 mM imidazole), and 15 column volumes of 2× wash buffer (100 mM HEPES pH 7.5, 600 mM NaCl, 20 mM imidazole). The protein was eluted with 5 column volumes of Ix elution buffer (150 mM imidazole pH 7.0, 300 mM NaCl). Buffer was exchanged with 0.1 M Tris pH 7.5, I mM NaCl, 5 mM DTT during concentration by ultrafiltration. Protein concentration was determined using Advanced Protein Assay Reagent (Cytoskeleton, Denver CO) with y-globulins (Sigma-Aldrich) as the standard. Purified protein was visualized via Coomassie stained SDS-PAGE.

[3] = whole cell, read-out: P. f. IC50
[4] = recombinant His-tagged enzyme, read-out: P. f. DXR IC50
[5] = Plasmodium falciparum, 3D7, read-out: P. f. IC50

Question: Which IC50 (P falciparum strain 3D7; [3]) does the source give for `CC(=O)N(O)C/C=C/P(=O)(OCOC(=O)c1ccccc1)OCOC(=O)c1ccccc1` [BOM, CH3] here?
Answer: The IC50 was 11 nM.

Question: For `O=CN(O)C/C=C/P(=O)(OCOC(=O)c1ccccc1)OCOC(=O)c1ccccc1` [BOM, H], which IC50 (P falciparum strain 3D7; [3]) is on record?
Answer: The IC50 was 42 nM.

Question: Which IC50 (P falciparum strain 3D7; [3]) does the source give for `O=C(OCOP(=O)(/C=C/CN(O)C(=O)c1ccccc1)OCOC(=O)c1ccccc1)c1ccccc1` [BOM, phenyl, [({[(E)-benzoyloxy]methoxy}[(1E)-3-(N-hydroxy-1-phenylformamido)prop-1-en-1-yl]phosphoryl)oxy]methyl benzoate] here?
Answer: Its IC50 is 297 nM.

Question: For `CC(=O)N(O)CCCP(=O)(O)O` [FR900098], which IC50 (P. falciparum DXR [1]) is on record?
Answer: Its IC50 is 24 nM.

Question: For `O=C(c1ccc(Cl)c(Cl)c1)N(O)C/C=C/P(=O)(O)O` [NH4,3,4-dichlorophenyl], which IC50 (P falciparum strain 3D7; [3]) is on record?
Answer: Its IC50 is 129 nM.

Question: Which IC50 (P falciparum strain 3D7; [3]) does the source give for `O=C(c1cc(Cl)cc(Cl)c1)N(O)C/C=C/P(=O)(O)O` [NH4,3,5-dichlorophenyl] here?
Answer: Its IC50 is 218 nM.

Question: For `O=C(c1cccc(Cl)c1)N(O)C/C=C/P(=O)(O)O` [NH4,3-chlorophenyl], which IC50 (P falciparum strain 3D7; [3]) is on record?
Answer: The IC50 was 116 nM.

Question: With `O=C(c1cccc(F)c1)N(O)C/C=C/P(=O)(O)O` [NH4,3-fluorophenyl] as the compound, how does the IC50 (P falciparum strain 3D7; [3]) read?
Answer: The IC50 was 352 nM.

Question: Which IC50 (P. falciparum DXR [2]; [4]) does the source give for `O=C(c1cccc(C(F)(F)F)c1)N(O)C/C=C/P(=O)(O)O` [NH4,3-trifluoromethylphenyl] here?
Answer: The IC50 was 49 nM.

Question: Which IC50 (P. falciparum DXR [2]; [4]) does the source give for `O=C(c1ccc(F)cc1)N(O)C/C=C/P(=O)(O)O` [NH4,4-fluorophenyl] here?
Answer: The IC50 was 38 nM.

Question: And the IC50 (P falciparum strain 3D7; [3])?
Answer: The IC50 was 173 nM.

Question: With `COc1ccc(C(=O)N(O)C/C=C/P(=O)(O)O)cc1` [NH4,4-methoxyphenyl] as the compound, how does the IC50 (P falciparum strain 3D7; [3]) read?
Answer: Its IC50 is 632 nM.

Question: Which IC50 (P falciparum strain 3D7; [3]) does the source give for `O=C(c1ccncc1)N(O)C/C=C/P(=O)(O)O` [NH4,4-pyridinyl] here?
Answer: The IC50 was 5390 nM.

Question: With `O=C(c1ccccc1)N(O)C/C=C/P(=O)(O)O` [NH4, phenyl, Diammonium [(1E)-3-(N-hydroxy-1-phenylformamido)prop-1-en-1-yl]phosphonate] as the compound, how does the IC50 (P. falciparum DXR [2]) read?
Answer: Its IC50 is 81 nM.

Question: And the IC50 (P falciparum strain 3D7; [5])?
Answer: Its IC50 is 273 nM.

Question: For `O=C(c1cccc2ccccc12)N(O)C/C=C/P(=O)(O)O` [Na/H, 1-naphthyl], which IC50 (P. falciparum DXR [2]; [4]) is on record?
Answer: The IC50 was 1800 nM.

Question: What about the IC50 (P falciparum strain 3D7; [3]) of the same compound?
Answer: Its IC50 is 5480 nM.

Question: With `O=C(c1ccc2ccccc2c1)N(O)C/C=C/P(=O)(O)O` [Na/H, 2-naphthyl] as the compound, how does the IC50 (P. falciparum DXR [2]; [4]) read?
Answer: Its IC50 is 471 nM.

Question: What about the IC50 (P falciparum strain 3D7; [3]) of the same compound?
Answer: Its IC50 is 1620 nM.

Question: Which IC50 (P. falciparum DXR [2]) does the source give for `O=C(c1cc(Cl)cc(Cl)c1)N(O)C/C=C/P(=O)(O)O` [Na/H, 3,5-dichlorophenyl, Sodium hydrogen [(1E)-3-[1-(3,5-dichlorophenyl)—N-hydroxyformamido]prop-1-en-1-yl]phosphonate] here?
Answer: Its IC50 is 64 nM.

Question: What about the IC50 (P falciparum strain 3D7; [5]) of the same compound?
Answer: Its IC50 is 170 nM.

Question: What does the source list for `O=C(c1cccc(Cl)c1)N(O)C/C=C/P(=O)(O)O` [Na/H, 3-chlorophenyl]?
Answer: IC50 (P. falciparum DXR [2]; [4]): 158 nM; IC50 (P falciparum strain 3D7; [3]): 279 nM

Question: With `O=C(c1cccc(C(F)(F)F)c1)N(O)C/C=C/P(=O)(O)O` [Na/H, 3-trifluoromethylphenyl] as the compound, how does the IC50 (P. falciparum DXR [2]; [4]) read?
Answer: The IC50 was 48 nM.

Question: What about the IC50 (P falciparum strain 3D7; [3]) of the same compound?
Answer: Its IC50 is 188 nM.

Question: Which IC50 (P. falciparum DXR [2]; [4]) does the source give for `O=C(c1ccc(-c2ccccc2)cc1)N(O)C/C=C/P(=O)(O)O` [Na/H, 4-biphenyl] here?
Answer: Its IC50 is 290 nM.

Question: And the IC50 (P falciparum strain 3D7; [3])?
Answer: The IC50 was 4380 nM.

Question: Which IC50 (P. falciparum DXR [2]; [4]) does the source give for `O=C(c1ccc(F)cc1)N(O)C/C=C/P(=O)(O)O` [Na/H, 4-fluorophenyl] here?
Answer: The IC50 was 41 nM.

Question: And the IC50 (P falciparum strain 3D7; [3])?
Answer: The IC50 was 121 nM.

Question: For `Cc1ccc(C(=O)N(O)C/C=C/P(=O)(O)O)cc1` [Na/H, 4-methylphenyl], which IC50 (P. falciparum DXR [2]; [4]) is on record?
Answer: The IC50 was 164 nM.

Question: And the IC50 (P falciparum strain 3D7; [3])?
Answer: Its IC50 is 1390 nM.

Question: For `O=C(c1ccncc1)N(O)C/C=C/P(=O)(O)O` [Na/H, 4-pyridinyl], which IC50 (P. falciparum DXR [2]; [4]) is on record?
Answer: The IC50 was 519 nM.

Question: What about the IC50 (P falciparum strain 3D7; [3]) of the same compound?
Answer: The IC50 was 6520 nM.

Question: Which IC50 (P. falciparum DXR [2]; [4]) does the source give for `CC(C)(C)c1ccc(C(=O)N(O)C/C=C/P(=O)(O)O)cc1` [Na/H, 4-t-butylphenyl] here?
Answer: Its IC50 is 37900 nM.

Question: What about the IC50 (P falciparum strain 3D7; [3]) of the same compound?
Answer: The IC50 was 43700 nM.

Question: For `O=C(c1ccc(C(F)(F)F)cc1)N(O)C/C=C/P(=O)(O)O` [Na/H, 4-trifluoromethylphenyl], which IC50 (P. falciparum DXR [2]; [4]) is on record?
Answer: Its IC50 is 146 nM.

Question: What about the IC50 (P falciparum strain 3D7; [3]) of the same compound?
Answer: Its IC50 is 2500 nM.

Question: Which IC50 (P falciparum strain 3D7; [3]) does the source give for `CC(=O)N(O)C/C=C/P(=O)(OCOC(=O)C(C)(C)C)OCOC(=O)C(C)(C)C` [POM, CH3] here?
Answer: Its IC50 is 18 nM.

Question: With `CC(C)(C)C(=O)OCOP(=O)(/C=C/CN(O)C=O)OCOC(=O)C(C)(C)C` [POM, H] as the compound, how does the IC50 (P falciparum strain 3D7; [3]) read?
Answer: Its IC50 is 13 nM.

Question: For `CC(C)(C)C(=O)OCOP(=O)(C/C=C/N(O)C(=O)c1ccccc1)OCOC(=O)C(C)(C)C` [POM, phenyl, (E)-(((3-(N-hydroxybenzamido)allyl)phosphoryl)bis(oxy))bis(methylene)bis(2,2-dimethylpropanoate)], which IC50 (P falciparum strain 3D7; [3]) is on record?
Answer: Its IC50 is 200 nM.
